Experimental data: PMC7144376, “Antiviral Effects of Novel 2-Benzoxyl-Phenylpyridine Derivatives” (Molecules, 2020)

Experiments:
ADV7 = assay: Inhibition of ADV7-induced cytopathic effects in HeLa cells (MTT); assay type: cell-based, adenovirus type 7; settings: for EC50: Human mastadenovirus B, 100 TCID50 ADV7, 48 h, MTT, read-out: EC50 (50% protection from virus-induced cytopathogenicity), ADV7
Experimental: (§1) Figure 1 Antiviral activities of novel 2-benzoxyl-phenylpyridine derivatives against CVB3 and ADV7. […] Hep-2 or HeLa cells were infected with 100 TCID50 of CVB3 or ADV7 for 1.5 h at 37 °C. Then, the inocula were aspirated and the cells were incubated with various concentrations of test compounds for 48 h. Cell viability was determined using the MTT assay. (b) Images showing the morphology of Hep-2 and HeLa cells treated with 120 μM W-9, 160 μM W-13, or 160 μM W-15 (magnification, 20×).
(§2) The antiviral activities of compounds against CVB3 and ADV7 were determined by measuring their inhibition of virus-induced CPEs in acutely infected Hep-2 and HeLa cells, respectively. Confluent cell monolayers in 96-well plates were infected with 100 TCID50 of CVB3 or ADV7 for 1.5 h at 37 °C, inocula were aspirated, and the cells then were incubated with various concentrations of compounds at 37 °C, 5% CO2, for 48 h. CPEs were observed by microscopy and the viability of cells was determined using MTT assays. The concentrations of test compounds required to achieve 50% protection from virus-induced cytopathogenicity (EC50 values) were determined. Adverse effects of tested compounds on host cells were also assessed using the MTT method after exposing uninfected cells to various concentrations of test compounds for 48 h at 37 °C. The CC50 values of compounds were calculated using SPSS software and selectivity indices were the ratio of CC50:EC50. Each experiment was performed in triplicate and at least three times, independently.

[1] = Cytotoxicity on uninfected Hep-2 cells (MTT, 48 h); assay type: cell-based; settings: human, read-out: CC50 (reduce cell viability by 50%), CVB3 host cells
Experimental: (§3) Human laryngeal carcinoma cells (Hep-2) and human cervical carcinoma cells (HeLa) were maintained in DMEM (Gibco) supplemented with 10% fetal bovine serum (FBS; Gibco), 100 U/mL penicillin and streptomycin, and 2 mM L-glutamine.
as §2

[2] = Cytotoxicity on uninfected HeLa cells (MTT, 48 h); assay type: cell-based; settings: human, read-out: CC50 (reduce cell viability by 50%), ADV7 host cells
Experimental: as §3, §2

CVB3 = assay: Inhibition of CVB3-induced cytopathic effects in Hep-2 cells (MTT); assay type: cell-based, Coxsackievirus B3; settings: for EC50: Enterovirus B, 100 TCID50 CVB3, 48 h, MTT, read-out: EC50 (50% protection from virus-induced cytopathogenicity), CVB3
Experimental: as §1, §2

SMILES	SI (CC50/EC50), ADV7 (ADV7)	inhibitory activity against ADV7 infection (in words) (ADV7)	EC50 (ADV7)	CC50 at 48 h [1]	CC50 at 48 h [2]	SI (CC50/EC50), CVB3 (CVB3)	inhibitory activity against CVB3 infection (in words) (CVB3)	EC50 (CVB3)
Cc1cccnc1-c1ccc(Br)cc1OC(=O)c1ccccc1 [W12]	3.3	selective anti-ADV7 activity	63.6 ± 16.6 µM	128 ± 17.9 µM	211 ± 14.7 µM	–	–	–
Cc1cccnc1-c1ccc(Cl)cc1OC(=O)c1ccccc1 [W4]	–	–	–	222 ± 24.1 µM	797 ± 45.7 µM	4.1	selective antiviral activities against CVB3	54.4 ± 11.1 µM
Cc1cccnc1-c1ccc(F)cc1OC(=O)c1ccccc1 [W8]	–	–	–	354 ± 49.5 µM	843 ± 37.1 µM	4.4	selective antiviral activities against CVB3	80.1 ± 15 µM
O=C(Oc1cc(Br)ccc1-c1ccccn1)c1ccccc1 [W10]	4.9	significant inhibitory activities	51.1 ± 20.1 µM	184 ± 26.3 µM	249 ± 23.2 µM	5.0	significant inhibitory activities	36.7 ± 15.8 µM
Cc1ccc(OC(=O)c2ccccc2)c(-c2ncccc2C)c1 [W6]	4.9	significant inhibitory activities	66 ± 20.1 µM	244 ± 30.4 µM	326 ± 21.8 µM	2.8	significant inhibitory activities	88.4 ± 19.5 µM
Cc1cccc(OC(=O)c2ccccc2)c1-c1ccccn1 [W3]	9.8	–	–	630 ± 39.4 µM	921 ± 59.5 µM	6.0	–	–
COc1ccc(-c2ccccn2)c(OC(=O)c2ccccc2)c1 [W2]	>12.9	significant inhibitory activities	50.8 ± 16.7 µM	240 ± 22 µM	> 656 µM	2.4	significant inhibitory activities	101 ± 14.1 µM
COc1ccc(OC(=O)c2ccccc2)c(-c2ncccc2C)c1 [W5]	–	–	–	33.5 ± 9.4 µM	38.9 ± 18.8 µM	–	–	–
CC(=O)c1ccc(-c2ccccn2)c(OC(=O)c2ccccc2)c1 [W14]	13.0	significant inhibitory activities	75.4 ± 20.2 µM	490 ± 26.8 µM	979 ± 27.8 µM	5.6	significant inhibitory activities	87.1 ± 21.1 µM
Cc1cccnc1-c1sccc1OC(=O)c1ccccc1 [W7]	–	–	–	350 ± 28.8 µM	1030 ± 63.1 µM	–	–	–
O=C(Oc1ccsc1-c1ccccn1)c1ccccc1 [W11]	–	–	–	378 ± 19.2 µM	1020 ± 72.6 µM	–	–	–
O=C(Oc1ccccc1-c1ccccn1)c1ccccc1 [W1]	–	–	–	594 ± 49.1 µM	1060 ± 93.5 µM	–	–	–
